Test results from PubChem BioAssay (NCI).
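Values below derive from 48-hour exposures of cells grown in 96-well plates, with endpoints linearly interpolated between the two concentrations bracketing the appropriate inhibition level. The concentration for 50% growth inhibition is given as GI50. TGI denotes the concentration required for complete inhibition of growth.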

Tests used:
Test in all cases: NCI-60 cell line screen, 48 h
[1] = tested on: OVCAR-5 ovarian
[2] = tested on: HCT-116 colon
[3] = tested on: RXF 393 renal
[4] = tested on: SNB-75 CNS
[5] = tested on: SK-MEL-5 melanoma
[6] = tested on: SN12C renal
[7] = tested on: KM12 colon
[8] = tested on: UACC-257 melanoma
[9] = tested on: PC-3 prostate
[10] = tested on: SK-MEL-2 melanoma
[11] = tested on: MALME-3M melanoma
[12] = tested on: CCRF-CEM leukemia
[13] = tested on: DU-145 prostate
[14] = tested on: BT-549 breast
[15] = tested on: A549 NSCLC
[16] = tested on: CAKI-1 renal
[17] = tested on: TK-10 renal
[18] = tested on: ACHN renal
[19] = tested on: SF-539 CNS
[20] = tested on: NCI-H23 lung
[21] = tested on: UACC-62 melanoma
[22] = tested on: MDA-MB-435
[23] = tested on: HS 578T breast
[24] = tested on: HL-60(TB) leukemia
[25] = tested on: 786-0 renal
[26] = tested on: OVCAR-4 ovarian
[27] = tested on: EKVX NSCLC
[28] = tested on: SF-268 CNS
[29] = tested on: COLO 205 colon
[30] = tested on: SW-620 colon
[31] = tested on: OVCAR-8 ovarian
[32] = tested on: UO-31 renal
[33] = tested on: SF-295 CNS
[34] = tested on: U251 CNS
[35] = tested on: SNB-19 CNS
[36] = tested on: K-562 leukemia
[37] = tested on: LOX IMVI melanoma
[38] = tested on: NCI-H522 lung
[39] = tested on: IGROV1 ovarian
[40] = tested on: MCF7 breast
[41] = tested on: HOP-92 NSCLC
[42] = tested on: SR leukemia
[43] = tested on: MDA-MB-231 breast
[44] = tested on: HOP-62 NSCLC
[45] = tested on: A498 renal
[46] = tested on: NCI-H460 lung
[47] = tested on: SK-MEL-28 melanoma
[48] = tested on: NCI-H226 lung
[49] = tested on: OVCAR-3 ovarian
[50] = tested on: NCI/ADR-RES ovarian
[51] = tested on: M14 melanoma
[52] = tested on: HCT-15 colon
[53] = tested on: HT29 colon
[54] = tested on: SK-OV-3 ovarian
[55] = tested on: HCC-2998 colon
[56] = tested on: RPMI-8226 leukemia
[57] = tested on: MOLT-4 leukemia
[58] = tested on: T-47D breast

COc1cccc(N2CCN(CC(=O)N3CCN(c4nnc(-c5ccc(Cl)cc5)c(-c5ccc(Cl)cc5)n4)CC3)CC2)c1
GI50 [1]: > 100 µM
TGI [1]: > 100 µM
GI50 [2]: 5.98 µM
TGI [2]: > 100 µM
GI50 [3]: 28.7 µM
TGI [3]: > 100 µM
GI50 [4]: 19 µM
TGI [4]: 52.9 µM
GI50 [5]: 8.55 µM
TGI [5]: > 100 µM
GI50 [6]: 23.1 µM
TGI [6]: > 100 µM
GI50 [7]: 14.3 µM
TGI [7]: > 100 µM
GI50 [8]: 51.7 µM
TGI [8]: > 100 µM
GI50 [9]: 16.6 µM
TGI [9]: > 100 µM
GI50 [10]: 35.1 µM
TGI [10]: > 100 µM
GI50 [11]: 20.6 µM
TGI [11]: > 100 µM
GI50 [12]: 27.2 µM
TGI [12]: > 100 µM
GI50 [13]: > 100 µM
TGI [13]: > 100 µM
GI50 [14]: 12.9 µM
TGI [14]: > 100 µM
GI50 [15]: 38.1 µM
TGI [15]: > 100 µM
GI50 [16]: 14.8 µM
TGI [16]: > 100 µM
GI50 [17]: 17.3 µM
TGI [17]: 85.9 µM
GI50 [18]: 10.8 µM
TGI [18]: 32.1 µM
GI50 [19]: 11.5 µM
TGI [19]: 90.7 µM
GI50 [20]: 33.6 µM
TGI [20]: > 100 µM
GI50 [21]: 31.3 µM
TGI [21]: > 100 µM
GI50 [22]: 9.26 µM
TGI [22]: > 100 µM
GI50 [23]: 22 µM
TGI [23]: 85.7 µM
GI50 [24]: 3.84 µM
TGI [24]: > 100 µM
GI50 [25]: 16.3 µM
TGI [25]: 62.3 µM
GI50 [26]: 25.3 µM
TGI [26]: > 100 µM
GI50 [27]: 12.3 µM
TGI [27]: 93.7 µM
GI50 [28]: > 100 µM
TGI [28]: > 100 µM
GI50 [29]: 22.2 µM
TGI [29]: > 100 µM
GI50 [30]: 64.9 µM
TGI [30]: > 100 µM
GI50 [31]: 29.4 µM
TGI [31]: > 100 µM
GI50 [32]: 3.63 µM
TGI [32]: > 100 µM
GI50 [33]: 28.9 µM
TGI [33]: > 100 µM
GI50 [34]: 16.7 µM
TGI [34]: > 100 µM
GI50 [35]: 37.9 µM
TGI [35]: > 100 µM
GI50 [36]: 9.89 µM
TGI [36]: > 100 µM
GI50 [37]: 21.3 µM
TGI [37]: > 100 µM
GI50 [38]: 19.8 µM
TGI [38]: > 100 µM
GI50 [39]: 11.1 µM
TGI [39]: 84.7 µM
GI50 [40]: 5.14 µM
TGI [40]: 61.3 µM
GI50 [41]: 14.7 µM
TGI [41]: 36.4 µM
GI50 [42]: 5.04 µM
TGI [42]: 31.3 µM
GI50 [43]: 34.2 µM
TGI [43]: > 100 µM
GI50 [44]: 32.1 µM
TGI [44]: > 100 µM
GI50 [45]: 19.6 µM
TGI [45]: 52.1 µM
GI50 [46]: 24.5 µM
TGI [46]: > 100 µM
GI50 [47]: > 100 µM
TGI [47]: > 100 µM
GI50 [48]: 88.3 µM
TGI [48]: > 100 µM
GI50 [49]: 36.9 µM
TGI [49]: > 100 µM
GI50 [50]: 19.9 µM
TGI [50]: > 100 µM
GI50 [51]: 30.2 µM
TGI [51]: > 100 µM
GI50 [52]: 8.35 µM
TGI [52]: > 100 µM
GI50 [53]: 6.47 µM
TGI [53]: > 100 µM
GI50 [54]: 22 µM
TGI [54]: 77.6 µM
GI50 [55]: > 100 µM
TGI [55]: > 100 µM
GI50 [56]: 4.63 µM
TGI [56]: > 100 µM
GI50 [57]: 3.1 µM
TGI [57]: > 100 µM
GI50 [58]: 3.73 µM
TGI [58]: 47.6 µM
